Results published in PubChem BioAssay (NCI).
Values joined by “and” are separate entries in the source; they are usually repeats but may differ in a detail not shown here. Identical values can stand only once.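 Tested at 5 concentrations; 48 h exposure; 96-well plates; endpoints linearly interpolated, else capped at highest concentration. GI50 marks 50% less growth. The concentration for full growth arrest is given as TGI.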

Test system: MDA-MB-468 breast
Experiment: NCI tumour cell line growth inhibition, 48 h

| Compound | GI50 | TGI |
| --- | --- | --- |
| CN(C)CCCNC(=O)c1cncnc1Nc1ccc(OCc2cccc(F)c2)c(Cl)c1 | 1550 nM | 3.02 µM |
| CCN(CC)CCNc1cc(-c2cccc(OC(F)(F)F)c2)nc2ccc(N3CCCC3)cc12 | 1640 nM and 1840 nM | 3.18 µM and 3.61 µM |
| Nc1c(C(=O)c2ccc(CCCN3CCOCC3)cc2)cnn1-c1ccc(F)cc1 | 8190 nM | > 25 µM |
| COC(=O)[C@H](Cc1ccc(O)cc1)NC(=O)[C@@H](OC)[C@@H]1Cc2cc3cc(OC4CC(OC5CC(O)C(O)C(C)O5)C(O)C(C)O4)c(C)c(O)c3c(O)c2C(=O)[C@H]1OC1CC(OC2CC(OC3CC(C)(O)C(O)C(C)O3)C(O)C(C)O2)C(O)C(C)O1 (some centres not stated) | 67.2 nM | 0.839 µM |
| CCc1ccc2c(c1)N(CCO)C1=C(C(=O)OC1)C2c1cccc(Cl)c1 (configuration not stated) | 239 nM | 0.861 µM |
| COc1cc(-c2nn(-c3cccc(NC(=O)c4ccc(N5CCOCC5)c(C(F)(F)F)c4)c3)cc2-c2ccncc2)ccc1Cl | 183 nM | 0.781 µM |
| CC/C(=C(/c1ccc(O)cc1)c1ccc(OCCN2CCCCC2)cc1)c1ccc(OC)cc1 | 1370 nM | 3.22 µM |
| Cc1ccc(-c2nc(N3CCCNCC3)c3oc(-c4ccccc4)nc3n2)cc1 | 1550 nM | 3.24 µM |
| CCCCCCc1nc2nc(Cl)c(Cl)nc2[nH]1 | 2900 nM | > 100 µM |
| C[C@H]1[C@H]2[C@H]3CC[C@@H]4[C@@]5(C)C/C(=C/c6cccnc6)C(=O)C(C)(C)[C@@H]5CC[C@@]4(C)[C@]3(C)CC[C@]23CO[C@]1(C)[C@@H](C(=O)/C=C\c1cccnc1)C3 | 864 nM | 2.39 µM |
| O=C(Nc1nc2ccc(F)cc2s1)c1cccnc1Nc1ccc(Cl)cc1 | 1610 nM | > 100 µM |
| O=C(NCc1ccncc1)C12CC3CC(C1)CC(c1ccc(Cl)cc1)(C3)C2 | 6580 nM | 21.1 µM |
| CCN(CC)CCCC(C)N=c1cc(Nc2cc(=NC(C)CCCN(CC)CC)c3cc(OC)ccc3o2)oc2ccc(OC)cc12 (configuration not stated) | 543 nM | 1.19 µM |
| COc1cccc2c1c(C1=C(c3cn(C)c4ccccc34)C(=O)NC1=O)cn2C | > 25000 nM | > 25 µM |
| CCS(=O)(=O)Nc1cccc(Nc2c3cccc(C)c3nc3c(C)cccc23)c1OC | 2240 nM | 25.5 µM |
| O=S(=O)(Nc1cc(Cl)ccc1Cl)c1ccc(-c2cnc(C3CC3)o2)cc1 | 821 nM | 30.1 µM |
| COc1cnc2c(c1)C(=O)c1c-2n(CCCNC(C)C)c(=O)c2cc(F)ccc12 | 226 nM | 0.702 µM |
| Cc1nc2cnc(N)c(C#Cc3cncc(C(=O)Nc4ccc(Cl)c(C(F)(F)F)c4)c3)c2nc1C | 2870 nM | 11.6 µM |

| Compound | GI50 | TGI |
| --- | --- | --- |
| COc1cc(-c2ncn(/C=C\C(=O)OC(C)C)n2)cc(C(F)(F)F)c1 | 126 nM and 141 nM | 0.67 µM and 1.24 µM |
| O=C1OC(c2ccccc2)(c2cc(Br)c(O)c(Br)c2)c2ccccc21 (configuration not stated) | 27000 nM | 90.9 µM |
| C/C(=C(\c1ccc(OCCN2CCCCCC2)cc1)c1ccc(OC(=O)Cc2ccccc2)cc1)c1ccc(Cl)cc1 | 1990 nM | 4.38 µM |
| Cc1cc(Oc2ccc3nc(COc4ccc(CC5SC(=O)NC5=O)cc4)n(C)c3c2)cc(C)c1N (configuration not stated) | 25900 nM | > 93.6 µM |
| Cc1ncsc1-c1ccc(CNC(=O)[C@@H]2C[C@@H](O)CN2C(=O)[C@@H](NC(=O)C2(C#N)CC2)C(C)(C)C)cc1 | 54500 nM | > 100 µM |
| CN1CC(CNC(=O)OCc2ccccc2)CC2c3cccc4c3c(cn4C)CC21 (configuration not stated) | 1610 nM | 3.12 µM |
| c1ccc(CN=C(NCc2ccccc2)NCc2ccccc2)cc1 | 2290 nM | 5.38 µM |
| CC1=C([Te]c2ccc(O)cc2)C(=O)c2ccccc2C1=O | 697 nM | 2.17 µM |
| O=C(NO)c1ccc(Cn2c(=O)n(-c3ccccc3F)c(=O)c3ccccc32)cc1 | 1180 nM | 3.21 µM |
| Cc1cc(O)cc(C)c1/C=C/c1cncc(-c2nn[nH]n2)c1 | > 25000 nM | > 25 µM |
| C=CN(C)S(C)(=O)=O | > 100000 nM | > 100 µM |
| COc1ccc(-c2nc(N3CCN(C(=O)C4CCCCC4)CC3)c3c4c(sc3n2)CCCC4)cc1 | 29100 nM | > 100 µM |
| COc1ccc(-c2c(-c3cc(OC)c(OC)c(OC)c3)noc2N)cc1 | < 14.3 nM | 1.1 µM |
| CCc1cc2c(cc1N1CCC(N3CCOCC3)CC1)C(C)(C)c1[nH]c3cc(C#N)ccc3c1C2=O | 1800 nM and 2050 nM and 2140 nM | 5.25 µM and 5.67 µM and 7.85 µM |
| CCOC(=O)[C@@H](C)C[C@H](Cc1ccccc1)NC(=O)c1csc([C@@H](C[C@H](C(C)C)N(C)C(=O)[C@H](CC)NC(=O)[C@H]2CCCCN2C)OC(C)=O)n1 | < 1.67 nM | > 12.6 µM |
| O=C(/C(=C/c1ccc([N+](=O)[O-])cc1)SCc1ccc(F)cc1)c1ccc(Cl)cc1 | 9460 nM | 38.7 µM |
| CNC(=O)Oc1cc(C)c(/C=C/c2cncc(C(=O)NC)c2)c(C)c1 | 11000 nM | > 25 µM |
| COc1cc(OC)c(NC(=O)c2cc3ccccc3cc2O)cc1Cl | 3120 nM | 8.24 µM |
